Common to all, as to assay type: cell-based
Series [1] relates to neutrophils. The experiment in a line: Cell viability / cytotoxicity by propidium iodide exclusion assay. The note with it: 10 μg/ml, drug alone, 1 h incubation. On the procedure:
FIG. 17. Effects of Fan, Tet or SPRST on cell viability. Cell viability was measured by a propidium iodide exclusion assay. After incubation of cells (2×10^6/ml) with SPRST or test drugs for 1 h, cell suspension was further incubated with propidium iodide (10 μg/ml) and fluorescein diacetate (100 ng/ml) at room temperature for 10 min. Cell suspension was analyzed immediately on a flow cytometer (FACSCalibur™; Becton Dickinson) by recording forward and light scatter, red (>630 nm) and green (520 nm) fluorescence. […] Cell viability (%) was calculated by the CellQuest® software (Becton Dickinson) on a Power Macintosh 7300/200 computer. […]
Estimation of cell viability. Cell viability was determined according to Ormerod's method (Ormerod, M. G., 2000. Further applications to cell biology. In: Ormerod, M. G (Ed.), Flow cytometry, Third edition. Oxford University Press, UK, pp. 249-250) after incubation of, cells (2×10^6/ml) with test drugs for 1 h in 5-ml polystyrene round-bottomed tube (FALCON, Becton Dicson). […] After incubation with test drugs, cells suspension were further incubated with propidium iodide and fluorescein diacetate at room temperature for 10 min and analyzed immediately on a flow cytometer (FACSCalibur™; Becton Dickinson) by recording forward and light scatter, red (>630 nm) and green (520 nm) fluorescence. […]

Series [2] deals with human neutrophils. The experiment in a line: AlF4−-induced (direct G protein activation) [Ca2+]i increment. The note with it: 500 ng/ml pretreatment, 2 hrs.
Description: Effects of SPRST, Tet, or Fan on AlF4^−-induced changes in intracellular calcium concentration ([Ca^2+]i). Fura 2-AM or BCECF-AM labeled-neutrophils were pretreated with 5-10 μg/ml of SPRST or other chemicals at 37° C. for 10 min. For G-protein study, sample was pretreated with 500 ng/ml of pertussis toxin (PTX) at 37° C. for 2 hrs before the addition of AlF4^− (10 mM NaF plus 10 μM AlCl3), a direct G-protein activator. AlF4^−-induced changes in [Ca^2+]i were measured as described in Materials and Methods. […] Values are mean±S.E.M. (n=5). *P<0.05, as compared to samples receiving AlF4^− alone for [Ca^2+]i and neutrophil adhesion, respectively. […]
Where: K=224 nM (Fura-2 at 37° C.), Rmin=ratio value in minimal Ca^2+ conditions, Rmax=ratio value at a maximal Ca^2+ concentration, Sf380=380 nm reading in minimal Ca^2+ conditions (corrected for background), Sb380 =380 nm reading in maximal Ca^2+ conditions (corrected for background). Rmax and Sb380 were obtained at the end of a measurement by permeabilizing the cells with 0.2% digitonin, where Rmin and Sf380 were determined by adding 20 mM EGTA after digitonin lysis.
In series [3] the test system is human neutrophils. Nature of the series: fMLP- or LTB4-induced intracellular calcium concentration ([Ca2+]i), fura-2. The note with it: 500 ng/ml pretreatment, 2 hrs.
Description: Neutrophils (2×10^6/ml) were preloaded with fura 2-AM (5 μM) at 37° C. for 45 min and washed twice with HBSS (calcium free). […] For G-protein study, sample was pretreated with 500 ng/ml of pertussis toxin (PTX) at 37° C. for 2 hrs. Samples were gentle mixed with a micromagnetic stirrer at 37° C. for 5 min before addition of 1 μM of fMLP. [Ca^2+]i was measured on a spectrofluorometer as described in Materials and Methods. Net increase in [Ca^2+]i was calculated by subtracting control values from respective experimental values (control [Ca^2+]i in resting cell was 108±16 nM).
Neutrophils (2×10^6/ml) were preloaded with fura 2-AM (5 μM) at 37° C. for 45 min and washed twice with HBSS (calcium free). […] For G-protein study, sample was pretreated with 500 ng/ml of pertussis toxin (PTX) at 37° C. for 2 hrs. […] [Ca^2+]i was measured on a spectrofluorometer as described in Materials and Methods. Net increase in [Ca^2+]i was calculated by subtracting control values from respective experimental values (control [Ca^2+]i in resting cell was 108±16 nM). […]
Where: K=224 nM (Fura-2 at 37° C.), Rmin=ratio value in minimal Ca^2+ conditions, Rmax=ratio value at a maximal Ca^2+ concentration, Sf380=380 nm reading in minimal Ca^2+ conditions (corrected for background), Sb380 =380 nm reading in maximal Ca^2+ conditions (corrected for background). […]
Series [4] relates to human neutrophils. The experiment in a line: AlF4−-induced neutrophil firm adhesion. The note with it: 500 ng/ml pretreatment, 2 hrs.
Description: Effects of SPRST, Tet, or Fan on AlF4^−-induced changes in neutrophil adhesion. Fura 2-AM or BCECF-AM labeled-neutrophils were pretreated with 5-10 μg/ml of SPRST or other chemicals at 37° C. for 10 min. For G-protein study, sample was pretreated with 500 ng/ml of pertussis toxin (PTX) at 37° C. for 2 hrs before the addition of AlF4^− (10 mM NaF plus 10 μM AlCl3), a direct G-protein activator. AlF4^−-induced neutrophil adhesion were measured as described in Materials and Methods.
Measurement of Neutrophil Firm Adhesion. Adhesion of neutrophils to extracellular matrix was determined in 24-well tissue culture plates (FALCON®, NJ, USA) coated with fibrinogen as our previous study (Shen et al., 1999). Prior to the addition of neutrophils, the plates were incubated with 250 μl per well of human fibrinogen (50 pg/ml in PBS; Chemicon International, Inc., CA) for 2 hrs at 37° C. The wells were washed once with HBSS, blocked with 1% BSA (Sigma, USA) in HBSS for 1 hr at 37° C., and washed twice with HBSS containing 0.1% Tween-20 (Sigma, USA) and once with HBSS. […] Adherent neutrophils were then determined by measuring the fluorescence with a fluorescent plate reader (Cytofluor 2300, Millipore®) with excitation at 485 nm and emission at 530 nm. Data are expressed as fluorescence intensity.

For `COc1ccc2cc1Oc1ccc(cc1)C[C@H]1c3cc(c(OC)cc3CCN1C)Oc1c(O)c(OC)cc3c1[C@H](C2)N(C)CC3` [Fan, fangchinoline], the “cytotoxic effect (dead cells)” value in series [1] amounted to 0.84±0.11%. Regarding `COc1ccc2cc1Oc1ccc(cc1)C[C@H]1c3cc(c(OC)cc3CCN1C)Oc1c(OC)c(OC)cc3c1[C@H](C2)N(C)CC3` [Tet, tetrandrine], in series [1], the “cytotoxic effect (dead cells)” value stood at 1.24±0.17%. On to pertussis toxin [PTX], for which the “AlF4−-induced [Ca2+]i increment” value in series [2] is reported as “significantly inhibited”. For the same compound, the “inhibition of fMLP- or LTB4-triggered rapid increase in [Ca2+]i” value in series [3] is given as “abolished”. Moreover, the “AlF4−-induced neutrophil firm adhesion” value in series [4] is “significantly inhibited”.

Values taken from patent US20040105907A1, “Anti-inflammatory effects of the partially purified extract of radix stephaniae tetrandrae” (priority 2002, published 2004).
